US20060252807A1, “Novel ortho-terphenyl inhibitors of p38 kinase and methods of treating inflammatory disorders” (Kalypsys, Inc., priority 2005, published 2006)

What follows are compounds tested against T1, active p38 alpha enzyme (Upstate Biotechnology) (Homo sapiens, UniProt Q16539) (assay: p38α biochemical assay (ATP turnover, luminescent detection, Cambrex PKlight)). Details: p38α kinase; Table 1 Biological Activity.
T1 construct: purchased Upstate Biotechnology
Method in brief: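 Luminescent ATP-depletion readout measures total ATP turnover by p38α phosphorylating whole MapkapK2 protein. ATP 1.4 uM final; 30C, 2 h. Compounds delivered from DMSO.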

T1 sequence (Q16539 whole entry): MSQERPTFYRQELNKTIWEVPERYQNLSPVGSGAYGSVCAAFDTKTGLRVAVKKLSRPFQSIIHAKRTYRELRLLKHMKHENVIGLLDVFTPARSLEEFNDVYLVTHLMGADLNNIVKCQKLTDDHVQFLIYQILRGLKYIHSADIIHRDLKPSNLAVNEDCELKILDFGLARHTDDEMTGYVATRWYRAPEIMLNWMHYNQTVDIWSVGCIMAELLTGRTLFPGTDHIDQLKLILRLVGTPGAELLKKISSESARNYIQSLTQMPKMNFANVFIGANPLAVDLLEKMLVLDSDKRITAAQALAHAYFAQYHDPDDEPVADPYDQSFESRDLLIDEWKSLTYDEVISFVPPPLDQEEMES

IC50, > 1 µM:
CC(C)NC(=O)c1csc(-c2oc(CN3CCN(c4ccc(Cl)cc4)CC3)nc2-c2ccc(F)cc2)n1 [Example 1274], CC(C)NC(=O)c1csc(-c2oc(CN3CCN(c4ccc(F)cc4F)CC3)nc2-c2ccc(F)cc2)n1 [Example 1276], CC(C)NC(=O)c1csc(-c2oc(CN(Cc3cccnc3)Cc3cccnc3)nc2-c2ccc(F)cc2)n1 [Example 1277], CC(C)NC(=O)c1csc(-c2oc(CN3CCN(CCN4CCOCC4)CC3)nc2-c2ccc(F)cc2)n1 [Example 1278], CC(C)NC(=O)c1csc(-c2oc(CN3CCC(N(C)C(=O)OC(C)(C)C)C3)nc2-c2ccc(F)cc2)n1 (centres unmarked) [Example 1279], CC(=O)c1ccc(N2CCN(Cc3nc(-c4ccc(F)cc4)c(-c4nc(C(=O)NC(C)C)cs4)o3)CC2)cc1 [Example 1280], CCN(CC)CCN(Cc1ccccc1)Cc1nc(-c2ccc(F)cc2)c(-c2nc(C(=O)NC(C)C)cs2)o1 [Example 1281], CC(C)NC(=O)c1csc(-c2oc(CN3CCN(c4ccc([N+](=O)[O-])cc4)CC3)nc2-c2ccc(F)cc2)n1 [Example 1282], CC(C)NC(=O)c1csc(-c2oc(CN(C)Cc3cccc4ccccc34)nc2-c2ccc(F)cc2)n1 [Example 1283], Cc1ccc(Cl)cc1N1CCN(Cc2nc(-c3ccc(F)cc3)c(-c3nc(C(=O)NC(C)C)cs3)o2)CC1 [Example 1284], COc1cc(CN(C)Cc2nc(-c3ccc(F)cc3)c(-c3nc(C(=O)NC(C)C)cs3)o2)cc(OC)c1OC [Example 1285], CC(C)NC(=O)c1csc(-c2oc(CN(CCc3ccccc3)Cc3ccccc3)nc2-c2ccc(F)cc2)n1 [Example 1286], CC(C)NC(=O)c1csc(-c2oc(CN(C)C(Cc3ccccc3)c3ccccc3)nc2-c2ccc(F)cc2)n1 (centres unmarked) [Example 1288], CC(C)NC(=O)c1csc(-c2oc(CN3CCC(O)(c4ccc(Cl)cc4)CC3)nc2-c2ccc(F)cc2)n1 [Example 1289], C#CCN(Cc1nc(-c2ccc(F)cc2)c(-c2nc(C(=O)NC(C)C)cs2)o1)Cc1ccc(Cl)cc1Cl [Example 1290], CCN(Cc1nc(-c2ccc(F)cc2)c(-c2nc(C(=O)NC(C)C)cs2)o1)C(Cc1ccccc1)c1ccco1 (centres unmarked) [Example 1291], CC(C)NC(=O)c1csc(-c2oc(CN3CCN(C(=O)OC(C)(C)C)C[C@H]3CO)nc2-c2ccc(F)cc2)n1 [Example 1292], CC(C)NC(=O)c1csc(-c2oc(CN3CCN(c4ccc(C(C)(C)C)cc4)CC3)nc2-c2ccc(F)cc2)n1 [Example 1293], CC(C)NC(=O)c1csc(-c2oc(CN3CCN(Cc4ccc5c(c4)OCO5)CC3)nc2-c2ccc(F)cc2)n1 [Example 1294], COc1cc2c(cc1OC)CN(Cc1nc(-c3ccc(F)cc3)c(-c3nc(C(=O)NC(C)C)cs3)o1)CC2 [Example 1295], CC(C)NC(=O)c1csc(-c2oc(CN3CCN(c4ccc(C(F)(F)F)cc4)CC3)nc2-c2ccc(F)cc2)n1 [Example 1296], CC(C)NC(=O)c1csc(-c2oc(CN3CCN(c4cccc(C(F)(F)F)c4)CC3)nc2-c2ccc(F)cc2)n1 [Example 1297], CC(C)NC(=O)c1csc(-c2oc(CN3CCN(c4ccc(Cl)c(Cl)c4)CC3)nc2-c2ccc(F)cc2)n1 [Example 1298], CC(C)NC(=O)c1csc(-c2oc(CN3CCN(c4ccc(C(F)(F)F)cn4)CC3)nc2-c2ccc(F)cc2)n1 [Example 1300], CC(C)NC(=O)c1csc(-c2oc(CN3CCN(c4ccccc4Cl)CC3)nc2-c2ccc(F)cc2)n1 [Example 1301], COc1ccc(N2CCN(Cc3nc(-c4ccc(F)cc4)c(-c4nc(C(=O)NC(C)C)cs4)o3)CC2)cc1OC [Example 1302], CC(C)NC(=O)c1csc(-c2oc(CN3CCCC(c4ccc(C(F)(F)F)cc4)C3)nc2-c2ccc(F)cc2)n1 (centres unmarked) [Example 1303], CC(C)NC(=O)c1csc(-c2oc(CNC3CCCc4ccccc43)nc2-c2ccc(F)cc2)n1 (centres unmarked) [Example 1304], CC(C)NC(=O)c1csc(-c2oc(CNc3ccccc3)nc2-c2ccc(F)cc2)n1 [Example 1307], Cc1cccc(NCc2nc(-c3ccc(F)cc3)c(-c3nc(C(=O)NC(C)C)cs3)o2)c1 [Example 1308], Cc1ccc(NCc2nc(-c3ccc(F)cc3)c(-c3nc(C(=O)NC(C)C)cs3)o2)cc1 [Example 1309], Cc1ccccc1NCc1nc(-c2ccc(F)cc2)c(-c2nc(C(=O)NC(C)C)cs2)o1 [Example 1310], Cc1ccc(NCc2nc(-c3ccc(F)cc3)c(-c3nc(C(=O)NC(C)C)cs3)o2)nc1 [Example 1311], Cc1cccc(NCc2nc(-c3ccc(F)cc3)c(-c3nc(C(=O)NC(C)C)cs3)o2)n1 [Example 1312], Cc1ccnc(NCc2nc(-c3ccc(F)cc3)c(-c3nc(C(=O)NC(C)C)cs3)o2)c1 [Example 1313], Cc1cccnc1NCc1nc(-c2ccc(F)cc2)c(-c2nc(C(=O)NC(C)C)cs2)o1 [Example 1314], CC(C)NC(=O)c1csc(-c2oc(CNc3ccccc3F)nc2-c2ccc(F)cc2)n1 [Example 1315], CC(C)NC(=O)c1csc(-c2oc(CNc3ccc(F)cc3)nc2-c2ccc(F)cc2)n1 [Example 1316], Cc1ccc(C)c(NCc2nc(-c3ccc(F)cc3)c(-c3nc(C(=O)NC(C)C)cs3)o2)c1 [Example 1317], Cc1ccc(NCc2nc(-c3ccc(F)cc3)c(-c3nc(C(=O)NC(C)C)cs3)o2)cc1C [Example 1318], CCc1ccccc1NCc1nc(-c2ccc(F)cc2)c(-c2nc(C(=O)NC(C)C)cs2)o1 [Example 1319], Cc1cccc(NCc2nc(-c3ccc(F)cc3)c(-c3nc(C(=O)NC(C)C)cs3)o2)c1C [Example 1321], Cc1ccc(NCc2nc(-c3ccc(F)cc3)c(-c3nc(C(=O)NC(C)C)cs3)o2)c(C)c1 [Example 1322], Cc1cc(C)cc(NCc2nc(-c3ccc(F)cc3)c(-c3nc(C(=O)NC(C)C)cs3)o2)c1 [Example 1323], COc1cccc(NCc2nc(-c3ccc(F)cc3)c(-c3nc(C(=O)NC(C)C)cs3)o2)c1 [Example 1324], COc1ccc(NCc2nc(-c3ccc(F)cc3)c(-c3nc(C(=O)NC(C)C)cs3)o2)cc1 [Example 1325], COc1ccccc1NCc1nc(-c2ccc(F)cc2)c(-c2nc(C(=O)NC(C)C)cs2)o1 [Example 1326], COc1ccncc1NCc1nc(-c2ccc(F)cc2)c(-c2nc(C(=O)NC(C)C)cs2)o1 [Example 1327], Cc1ccc(NCc2nc(-c3ccc(F)cc3)c(-c3nc(C(=O)NC(C)C)cs3)o2)cc1F [Example 1328], Cc1c(F)cccc1NCc1nc(-c2ccc(F)cc2)c(-c2nc(C(=O)NC(C)C)cs2)o1 [Example 1329], CC(C)NC(=O)c1csc(-c2oc(CNc3cc(F)cc(F)c3)nc2-c2ccc(F)cc2)n1 [Example 1330], CC(C)NC(=O)c1csc(-c2oc(CNc3ccc(F)cc3F)nc2-c2ccc(F)cc2)n1 [Example 1331], CC(C)NC(=O)c1csc(-c2oc(CNc3ccc4c(c3)CCC4)nc2-c2ccc(F)cc2)n1 [Example 1333], CC(C)NC(=O)c1csc(-c2oc(CNc3ccccc3C(C)C)nc2-c2ccc(F)cc2)n1 [Example 1334], CC(=O)c1cccc(NCc2nc(-c3ccc(F)cc3)c(-c3nc(C(=O)NC(C)C)cs3)o2)c1 [Example 1335], CC(=O)c1ccc(NCc2nc(-c3ccc(F)cc3)c(-c3nc(C(=O)NC(C)C)cs3)o2)cc1 [Example 1336], CCc1cccc(C)c1NCc1nc(-c2ccc(F)cc2)c(-c2nc(C(=O)NC(C)C)cs2)o1 [Example 1337], Cc1cc(C)c(NCc2nc(-c3ccc(F)cc3)c(-c3nc(C(=O)NC(C)C)cs3)o2)c(C)c1 [Example 1338], CC(C)NC(=O)c1csc(-c2oc(CNc3ccc4c(c3)OCO4)nc2-c2ccc(F)cc2)n1 [Example 1339], COc1ccc(NCc2nc(-c3ccc(F)cc3)c(-c3nc(C(=O)NC(C)C)cs3)o2)c(C)c1 [Example 1340], CCOc1cccc(NCc2nc(-c3ccc(F)cc3)c(-c3nc(C(=O)NC(C)C)cs3)o2)c1 [Example 1341], CCOc1ccccc1NCc1nc(-c2ccc(F)cc2)c(-c2nc(C(=O)NC(C)C)cs2)o1 [Example 1342], CSc1ccccc1NCc1nc(-c2ccc(F)cc2)c(-c2nc(C(=O)NC(C)C)cs2)o1 [Example 1343], Cc1c(Cl)cccc1NCc1nc(-c2ccc(F)cc2)c(-c2nc(C(=O)NC(C)C)cs2)o1 [Example 1344], Cc1ccc(NCc2nc(-c3ccc(F)cc3)c(-c3nc(C(=O)NC(C)C)cs3)o2)cc1Cl [Example 1345]
